For one assay, the target named is SIK3 (human) (Homo sapiens, UniProt Q9Y2K2). As to the kind of experiment: Enzymatic radiometric assay against human salt-inducible kinase-3 (SIK3). In kind it is biochemical. The method, then:
Assay 1: Determination of IC50 of Compound M1 Against Human Salt-Inducible Kinase-3 (SIK3) Using an Enzymatic Radiometric Assay
• SIK3 (human) was incubated with 8 mM MOPS pH 7.0, 0.2 mM EDTA, 100 uM of the peptide […] (Substrate), 10 mM Mg Acetate and [gamma-33P-ATP] (specific activity and concentration as required) in the presence of Compound M1. • The reaction was initiated by the addition of the Mg/ATP mix. • After incubation for 40 minutes at room temperature, the reaction was stopped by the addition of phosphoric acid to a concentration of 0.5%. • 10 μL of the reaction mixture was then spotted onto a P30 filtermat and washed four times for 4 minutes in 0.425% phosphoric acid and once in methanol prior to drying and scintillation counting. • The IC50 value was calculated using GraphPad Prism.

The subject of the next assay is TNFα mRNA. As to the kind of experiment: TNFα mRNA expression in LPS-stimulated mouse bone marrow derived macrophages (real-time PCR). The conditions noted are these: LPS (1 μg/ml) stimulated mouse BMDM; 1 μM Compound M1 vs 1 μM dasatinib (FIG. 2A). In kind it is cell-based. The method, then:
Assay 2: Evaluation of mRNA Expression Levels of IL-10, TNFα, and Arginase-1 in LPS-Stimulated (1 μg/ml) Mouse Bone Marrow Derived Macrophages (BMDM).
Mouse-Bone Marrow Cell Isolation
• Femur bones from healthy mice were collected taking all aseptic precautions. • Bones were severed proximal to each joint using sterile scissors. • A 10 ml syringe with 25-G needle was filled with cold sterile wash medium (DMEM/F12 medium+10% FBS (fetal bovine serum)+1% Penicillin-streptomycin). • The needle was inserted into bone marrow cavity of femur and the cavity was flushed with 2-5 mL of wash medium, until the bone cavity appeared white. • Wash medium was collected in a 50 mL tube and centrifuged at 500×g for 10 minutes at room temperature. • Cells were resuspended in DMEM/F12 medium and cell count was taken. […]
Fold change in the mRNA expression was calculated by 2^−ΔΔCt method and data was plotted using GraphPad Prism.
In general terms: In qPCR the cycle at which signal appears reflects the starting amount.

A further assay relates to THP-1 cell lines. As to the kind of experiment: MTT cell growth inhibition, single agent or combination, THP-1. In kind it is cell-based. To be noted: combined with azacytidine or ventoclax, 72 hrs. The method, then:
(§1) Assay 4: Compound M1 as a Single Agent or in Combination with Azacytidine, or Venetoclax was Determined in the AML Lines: THP-1, U937, and MV-4-11.
(§2) Day 0 • The cells were pelleted and counted. • Cells were plated at desired density (100 μl/well) in complete media in a 96-well plate in triplicates. A column for Day “0” reading was also seeded (18-20 hrs after initial plating and before addition of the inhibitors) • Plates were incubated at 37° C. and 5% CO2. Day 1 • 10 μl of MTT (5 mg/ml) were added to the column designated for Day “0”. It was mixed well and incubated at 37° C. and 5% CO2 for 3.5 h. Cells were pelleted down at 4000 rpm for 10 minutes. • Media was aspirated out and 150 μl of DMSO were added to the cells and mixed by pipetting to dissolve the crystals • Plate was read at A560 nm and A640 nm. […] Crystals were dissolved by repeated pipetting. • The plate was read at A560 nm and A640 nm. […]
(§3) Reference absorbance values were subtracted from test absorbance values. Day 0 values were subtracted from final day absorbance values for determining cell growth. Percent cell growth inhibitions were calculated.

The next assay relates to U937 cell lines. As to the kind of experiment: MTT cell growth inhibition, single agent or combination, U937. In kind it is cell-based. To be noted: combined with azacytidine or ventoclax, 72 hrs. The protocol:
as §1, §2, §3

A further assay deals with HuT-78 cell lines. Nature of the assay: MTT cell growth inhibition, combination with romidepsin, HuT-78. In kind it is cell-based. The conditions noted are these: combined with romedepsin, 72 hrs. The method, then: Assay 5: Combination of Compound M1 with Standard Agents in HuT-78 Cell Lines
Day 0 • The HuT-78 cells were pelleted and counted. • Cells were plated at desired density (100 μl/well) in complete media in a 96-well plate in triplicates. A column for Day “0” reading was also seeded. (18-20 hrs after initial plating and before addition of the inhibitors) • Plates were incubated at 37° C. and 5% CO2. Day 1 • 10 μl of MTT (5 mg/ml) were added to the column designated for Day “0”. It was mixed well and incubated at 37° C. and 5% CO2 for 3.5 hours. Cells were pelleted down at 4000 rpm for 10 minutes. • Media was aspirated out and 150 μl of DMSO were added to the cells and mixed by pipetting to dissolve the crystals • The plate was read at A560 nm and A640 nm. Day 2 • A series of dilutions of the inhibitors were initially made in 100% DMSO and further diluted in growth medium. • Cells were treated with either single agent of DMSO, compound M1, romidepsin, or a combination of compound M1 and romidepsin (HuT-78). […] Crystals were dissolved by repeated pipetting. • The plate was read at A560 nm and A640 nm. […]
Reference absorbance values were subtracted from test absorbance values. Day 0 values were subtracted from final day absorbance values for determining cell growth. % Cell growth inhibitions were calculated.

SMILES strings stand for the structures.

Chain of SIK3 (human) (Q9Y2K2 whole entry): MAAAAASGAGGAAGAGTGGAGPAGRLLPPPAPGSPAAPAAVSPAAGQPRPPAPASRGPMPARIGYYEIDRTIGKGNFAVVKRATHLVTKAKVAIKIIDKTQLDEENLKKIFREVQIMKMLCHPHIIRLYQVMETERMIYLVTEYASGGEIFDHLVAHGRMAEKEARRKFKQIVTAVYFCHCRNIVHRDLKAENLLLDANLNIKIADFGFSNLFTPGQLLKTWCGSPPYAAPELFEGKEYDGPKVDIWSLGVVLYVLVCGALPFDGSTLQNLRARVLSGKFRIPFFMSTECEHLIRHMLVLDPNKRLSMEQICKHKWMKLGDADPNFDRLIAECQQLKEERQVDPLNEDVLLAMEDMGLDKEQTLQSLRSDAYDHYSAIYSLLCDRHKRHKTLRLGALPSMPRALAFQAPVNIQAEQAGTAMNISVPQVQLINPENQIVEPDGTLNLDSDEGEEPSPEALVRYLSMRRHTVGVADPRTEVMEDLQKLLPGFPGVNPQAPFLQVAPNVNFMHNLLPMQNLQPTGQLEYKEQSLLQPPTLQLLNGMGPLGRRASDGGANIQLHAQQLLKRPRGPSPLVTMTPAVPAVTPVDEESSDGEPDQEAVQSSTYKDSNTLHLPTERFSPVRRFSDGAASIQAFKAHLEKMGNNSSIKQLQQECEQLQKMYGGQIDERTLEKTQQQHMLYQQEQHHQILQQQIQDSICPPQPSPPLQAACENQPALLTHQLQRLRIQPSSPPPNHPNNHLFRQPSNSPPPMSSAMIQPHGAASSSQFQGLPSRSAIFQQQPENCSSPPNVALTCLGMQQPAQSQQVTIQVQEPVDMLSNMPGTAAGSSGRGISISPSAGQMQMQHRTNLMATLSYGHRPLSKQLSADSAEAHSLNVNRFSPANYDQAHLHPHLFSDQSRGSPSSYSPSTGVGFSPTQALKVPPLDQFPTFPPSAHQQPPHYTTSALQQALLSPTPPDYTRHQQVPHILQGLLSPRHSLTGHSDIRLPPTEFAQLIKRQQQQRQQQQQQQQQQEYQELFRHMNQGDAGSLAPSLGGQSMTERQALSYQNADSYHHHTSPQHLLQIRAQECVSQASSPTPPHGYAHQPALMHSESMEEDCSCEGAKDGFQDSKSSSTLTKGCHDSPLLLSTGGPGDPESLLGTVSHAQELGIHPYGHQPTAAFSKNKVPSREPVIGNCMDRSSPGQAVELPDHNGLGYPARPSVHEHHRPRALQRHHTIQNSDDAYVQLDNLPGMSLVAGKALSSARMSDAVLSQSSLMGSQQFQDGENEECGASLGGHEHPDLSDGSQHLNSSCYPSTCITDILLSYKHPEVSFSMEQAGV

Take `CC[C@H](Nc1ncnc2[nH]c(O)nc12)c1oc2ccccc2c(=O)c1-c1cccc(F)c1` [Compound M1, (S)-3-(3-fluorophenyl)-2-(1-((8-hydroxy-9H-purin-6-yl)amino)propyl)-4H-chromen-4-one]: the “activity against salt-inducible kinase 3 (SIK3)” value on SIK3 (human) is reported as “exhibit activity”. The “SIK-3 inhibitory potency compared among compounds M, M1 and M2” value at SIK3 (human) (of the three compounds M, M1 and M2) is “most potent SIK-3 inhibitor”. In addition, the “TNFα mRNA expression, potency relative to dasatinib” value in the assay on TNFα mRNA was “more potent than dasatinib”. The results for the “cell growth inhibition in combination” value in the assay with THP-1 cell lines, in the assay with U937 cell lines and with HuT-78 cell lines were “synergistic activity”, “synergistic activity” and “synergistic results”, respectively.

Source of the values: patent US12428422B2, “Purine derivatives as SIK-3 inhibitors” (RHIZEN PHARMACEUTICALS AG, priority 2020, dated 2025).
